ChEMBL document CHEMBL1201862, “PubChem BioAssay data set” (2004)
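Method: 48-hour compound exposure of cells in 96-well plates, five concentrations, linear interpolation of endpoints. GI50: concentration for 50% inhibition of growth.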 Calls of active or inactive are those of the source. Rule as the data show it: active = GI50 up to about 1.1 µM and inactive = higher.

Legend:
Experiment in all cases: NCI anticancer screen, dose series, 48 h
A549 = system: A549
SNB-19 = system: SNB-19
EKVX = system: EKVX
RXF 393 = system: RXF 393
OVCAR-3 = system: OVCAR-3
COLO 205 = system: COLO 205
SNB-75 = system: SNB-75
K562 = system: K562
786-0 = system: 786-0
SW-620 = system: SW-620
NCI-H522 = system: NCI-H522
NCI-H23 = system: NCI-H23
CCRF-CEM = system: CCRF-CEM
HOP-92 = system: HOP-92
TK-10 = system: TK-10
HOP-62 = system: HOP-62
IGROV-1 = system: IGROV-1
NCI-H226 = system: NCI-H226

Measured: GI50

O=[N+]([O-])c1cc(I)cc(/C=N/NS(=O)(=O)c2ccc(Cl)cc2)c1O
inactive: A549 35.8 µM | SNB-19 29.9 µM | EKVX 32.6 µM | RXF 393 23.4 µM | OVCAR-3 19.1 µM | COLO 205 18.9 µM | SNB-75 27 µM | K562 20 µM | 786-0 21.1 µM | SW-620 27.6 µM | NCI-H522 16.9 µM | NCI-H23 16.3 µM | CCRF-CEM 25.4 µM | HOP-92 20.5 µM | TK-10 30.8 µM | HOP-62 25.6 µM | IGROV-1 20.3 µM

COc1ccc2c(c1OCC(=O)O)C(=O)C(CCC(=O)O)CC2 (stereo not drawn)
inactive: A549 > 100 µM | SNB-19 > 100 µM | EKVX > 100 µM | RXF 393 > 100 µM | OVCAR-3 > 100 µM | COLO 205 > 100 µM | SNB-75 > 100 µM | 786-0 > 100 µM | SW-620 > 100 µM | NCI-H23 > 100 µM | CCRF-CEM > 100 µM | TK-10 > 10 µM | HOP-62 > 100 µM | IGROV-1 > 100 µM

COC(=O)NC(=O)c1cn(C2CCCCC2)c(=O)[nH]c1=O
inactive: A549 > 100 µM | SNB-19 > 100 µM | RXF 393 > 100 µM | OVCAR-3 > 100 µM | COLO 205 > 100 µM | SNB-75 > 100 µM | K562 > 100 µM | NCI-H226 > 100 µM | 786-0 > 100 µM | SW-620 > 100 µM | NCI-H522 > 100 µM | NCI-H23 > 100 µM | CCRF-CEM > 100 µM | HOP-92 > 100 µM | TK-10 > 100 µM | HOP-62 > 100 µM | IGROV-1 > 100 µM

C/C(CC(=O)Nc1ccc(Cl)cc1)=N\NC(N)=S
inactive: A549 26.5 µM | EKVX > 100 µM | RXF 393 > 100 µM | OVCAR-3 > 100 µM | COLO 205 23.3 µM | SNB-75 > 100 µM | K562 5.43 µM | 786-0 > 100 µM | SW-620 > 100 µM | NCI-H522 47.2 µM | NCI-H23 > 100 µM | CCRF-CEM 30 µM | HOP-92 > 100 µM | TK-10 > 100 µM | HOP-62 67.9 µM | IGROV-1 > 100 µM

O=C(OCCOCBr)c1ccccc1
inactive: A549 > 100 µM | SNB-19 > 100 µM | EKVX > 100 µM | OVCAR-3 > 100 µM | COLO 205 > 100 µM | SNB-75 > 100 µM | K562 > 100 µM | NCI-H226 > 100 µM | 786-0 > 100 µM | SW-620 > 100 µM | NCI-H522 > 100 µM | NCI-H23 > 100 µM | CCRF-CEM > 100 µM | HOP-92 > 100 µM | TK-10 > 100 µM | HOP-62 > 100 µM | IGROV-1 > 100 µM

COc1cccc(NC(=O)CSc2nnc(-c3ccc(/N=C\c4ccc(Cl)cc4)cc3)o2)c1
inactive: A549 27.2 µM | SNB-19 19.5 µM | EKVX 36.7 µM | RXF 393 18.3 µM | COLO 205 19.4 µM | SNB-75 23.8 µM | K562 32.6 µM | NCI-H226 22.8 µM | 786-0 24.5 µM | SW-620 20.4 µM | NCI-H522 15.6 µM | NCI-H23 19.8 µM | CCRF-CEM 26.6 µM | TK-10 30.6 µM | HOP-62 31.6 µM

CC(=O)Nc1ccc(C(=O)N2N=C(C)/C(=C/c3ccccc3O)C2=O)cc1
inactive: A549 > 100 µM | SNB-19 > 100 µM | EKVX > 100 µM | OVCAR-3 > 100 µM | COLO 205 > 100 µM | SNB-75 > 100 µM | K562 > 100 µM | NCI-H226 > 100 µM | 786-0 > 100 µM | SW-620 > 100 µM | NCI-H522 > 100 µM | NCI-H23 > 100 µM | CCRF-CEM > 100 µM | TK-10 > 100 µM | HOP-62 > 100 µM

NCCn1cnc2nc(NC(=O)c3ccccc3)[nH]c(=O)c21
inactive: A549 > 100 µM | SNB-19 > 100 µM | EKVX > 100 µM | RXF 393 > 100 µM | OVCAR-3 > 100 µM | COLO 205 > 100 µM | SNB-75 45.7 µM | K562 > 100 µM | NCI-H226 > 100 µM | 786-0 > 100 µM | SW-620 > 100 µM | NCI-H23 > 100 µM | HOP-92 > 100 µM | TK-10 > 100 µM | HOP-62 > 100 µM | IGROV-1 > 100 µM

CCC(O)C1Cc2c(C)cc3c(c2O1)C(=O)c1ccccc1C3=O (stereo not drawn)
inactive: A549 36 µM | SNB-19 36.3 µM | EKVX 62.4 µM | OVCAR-3 29.4 µM | COLO 205 16.1 µM | SNB-75 31.8 µM | K562 29.8 µM | NCI-H226 46.8 µM | 786-0 25.8 µM | SW-620 52 µM | NCI-H522 21.1 µM | NCI-H23 33.3 µM | CCRF-CEM 31.3 µM | HOP-92 29.4 µM | TK-10 85.3 µM | HOP-62 35.9 µM | IGROV-1 31.5 µM

Cc1ccc(S(=O)(=O)c2ccc(N)cc2)cc1
inactive: A549 > 100 µM | EKVX > 100 µM | RXF 393 > 100 µM | OVCAR-3 > 100 µM | SNB-75 > 100 µM | K562 > 100 µM | NCI-H226 > 10 µM | 786-0 > 100 µM | SW-620 > 100 µM | NCI-H23 > 100 µM | CCRF-CEM > 100 µM | TK-10 > 100 µM | HOP-62 > 100 µM | IGROV-1 > 100 µM

CC(C)(C)OC(=O)NCC(=O)OCc1ccccc1
inactive: A549 > 100 µM | SNB-19 > 100 µM | OVCAR-3 > 100 µM | COLO 205 > 100 µM | SNB-75 > 100 µM | K562 > 100 µM | 786-0 > 100 µM | SW-620 > 100 µM | NCI-H522 > 10 µM | NCI-H23 > 100 µM | CCRF-CEM > 100 µM | HOP-92 > 100 µM | TK-10 > 100 µM | HOP-62 > 100 µM | IGROV-1 > 100 µM

c1nc2cscc2c2cscc12
inactive: A549 > 100 µM | SNB-19 > 100 µM | RXF 393 > 100 µM | OVCAR-3 > 100 µM | K562 > 100 µM | NCI-H226 29.2 µM | 786-0 > 100 µM | SW-620 > 100 µM | NCI-H522 > 100 µM | NCI-H23 > 100 µM | CCRF-CEM > 100 µM | HOP-92 14.7 µM | TK-10 > 100 µM | HOP-62 > 100 µM | IGROV-1 > 100 µM

COc1ccccc1/C=C(\C#N)C(=O)c1ccccc1
inactive: A549 > 100 µM | SNB-19 > 100 µM | EKVX > 100 µM | OVCAR-3 > 100 µM | COLO 205 > 100 µM | K562 > 100 µM | NCI-H226 > 100 µM | 786-0 > 100 µM | SW-620 > 100 µM | NCI-H522 > 100 µM | NCI-H23 > 100 µM | CCRF-CEM > 100 µM | HOP-92 > 100 µM | HOP-62 > 100 µM | IGROV-1 > 100 µM
